Measurements from patent US6774254B2, “Gold complexes” (National University of Singapore, priority 2000, dated 2004).

Assays:
[1] = system: K36 lymphoma (T-cell lymphoma); test: in vivo anti-tumor activity, K36 lymphoma in AKR mice (primary screen); settings: at MTTD, i.p. Day 1-7, tumor weights Day 8-11
Method: (§1) The in vivo anti-tumor activities of the phosphino-gold(I) compounds were evaluated using a murine tumor model, K36 lymphoma (T-cell lymphoma), inoculated subcutaneously into the AKR inbred mice. K36 lymphoma is a transformed cell line which originated from the AKR mice infected with murine leukemic retrovirus. The K36 lymphoma cells are naturally tumorigenic in syngenic AKR mice and is non-immunogenic to the host mice. The in vivo tests were carried out according to the following protocol:
Day 0: K36 lymphoma cells were washed with phosphate-buffered saline (PBS) for three times and suspended in RPMI 1640 medium at the concentration of 10×10^6 cells/mL 10^6 cells in 0.1 mL of the medium were implanted subcutaneously into each of the two flanks of inbred AKR mice with a ½-in, 28-gauge, 1-mL syringe. The mice were then randomly distributed into control and treatment groups with 5 mice/group.
Day 1-7: The desired dose of a test agent was dissolved in a minimum amount (<50 μL) of dimethylacetamide (DMA), followed by addition of Cremaphor_EL (polyethoxylated castor oil, <30 μL) with mixing. Saline was added to dilute the drug solution and the desired dose was delivered in a volume of 5×0.3 mL for one group of mice (5 mice per group). In this case, the final concentration of dimethylacetamide was less than 3.3% and that of the carrier less than 2%. Formulation of a test agent was carried out just before injection into the animals. The test agent was injected intraperitoneally into the treatment groups of mice twice a day following the flexible schedule as recommended in the literature (Corbett, T. H.; Valeriote, F. A; LoRusso, P.; Polin, L; et. al. In “Anticancer Drug Development Guide: Preclinical Screening, Clinical Trials, and Approval”, (Ed. Teicher, B. A.), Humana Press Inc., Totowa, N.J., 1997 p 75-99.) to reach the most tolerated drug dose.
(§2) Day 8-11: Tumor weights were estimated from two-dimensional measurement, following the formula:
(§3) Tumor weight (in mg)=(a×b^2)/2,
(§4) wherein a and b are tumor length and width (in mm), respectively. The usual T/C value was used to assess the in vivo anti-tumor activity. T refers to the total tumor weight of the treatment group (including zeros), whereas, C refers to the total tumor weight of the non-treatment control group (including zeros). According to the NCI (National Cancer Institute in USA) standard, a T/C value of 42% is considered significant anti-tumor activity.
Furthermore, two compounds cisplatin (cis-diaminedichloroplatinum(II)) and [Au(dppe)2]Cl (dppe: 1,2-bis(diphenylphosphino)ethane) with known anti-tumor activities were also included in the In vivo test Table 2 summarizes the anti-tumor activities of (Sp)-1 and (Rp)-1.

Daudi (B-cell lymphoma) = test: human suspension tumor cell line assay, Daudi; assay type: cell-based; settings: 2 h exposure, cells counted after 5 days; read-out: cytotoxicity IC50, Daudi
Method: (§5) The human suspension tumor cell line assay determines the ability of a compound to inhibit the cells' ability to divide in vitro after a two hour exposure to the compound. The panel of human suspension tumor cell lines consist of Raji (B-cell lymphoma), Daudi (B-cell lymphoma), P3HR-1(B-cell lymphoma), and Molt-4 (T-cell leukemia). The cytotoxicity tests were carried out in vitro according to the following protocol:
(§6) Cryopreserved tumor cells were thawed and cultured in the media RPMI-1640 supplemented with 10% fetal calf serum (FCS) and 100 units/mL penicillin and 100 μg/mL streptomycin (“media R10”), in a 5% CO2 humidified incubator at 37° C. They were subcultured every three days in a 75 cm^2 tissue culture flask.
(§7) A hemocytometer with four 1×1×0.1 mm^3 cells was used to count the cell concentration of a specified cell suspension solution. Trypan Blue was used to determine the viability of the counted cells, as live cells can exclude the dye penetration.
(§8) Each of Raji, Daudi, P3HR-1 and Molt-4 cells were dispensed into 6-well petri plates with 30,000 cells per well and were labelled in groups of three. A drug solution with a specified concentration was freshly prepared by dilution of a gold complex solution (1 mM) in DMSO with the media R10. […] The number of cells in each well was counted and the average value of triplicate samples were determined for each drug concentration.

Raji (B-cell lymphoma) = test: human suspension tumor cell line assay, Raji; assay type: cell-based; settings: 2 h exposure, cells counted after 5 days; read-out: cytotoxicity IC50, Raji
Method: as §5, §6, §7, §8

K36 lymphoma = test: secondary in vivo evaluation, K36 lymphoma at three dosage levels; design: species or system AKR mice
Method: as §1
The mice were then randomly distributed into control and treatment groups with 5 mice/group.
Day 1-7: The desired dose of a test agent was dissolved in a minimum amount (<50 μL) of dimethylacetamide (DMA), followed by addition of Cremaphor_EL (polyethoxylated castor oil, <30 μL) with mixing. Saline was added to dilute the drug solution and the desired dose was delivered in a volume of 5×0.3 mL for one group of mice (5 mice per group). […] Formulation of a test agent was carried out just before injection into the animals.
as §2, §3
as §4, with “zeros).” for “zeros). According to the NCI (National Cancer Institute in USA) standard, a T/C value of 42% is considered significant anti-tumor activity.”
In addition, three dose levels of 0.67 decrements were used in the secondary in vivo evaluation studies of (Sp)-1 and (Rp)-1 against the K36 lymphoma. The purpose of testing at multiple dosage levels is to exclude agents with exceptionally steep dose-response curves, where only the most tolerated dose is active.

P3HR-1 (B-cell lymphoma) = test: human suspension tumor cell line assay, P3HR-1; assay type: cell-based; settings: 2 h exposure, cells counted after 5 days; read-out: cytotoxicity IC50, P3HR-1
Method: as §5, §6, §7, §8

Mahlavu (liver cancer) = test: cytotoxicity against human adherent tumor cell line Mahlavu; assay type: cell-based; settings: four hours exposure, cells counted after 5 days
Method: In addition, cytotoxicities of (Sp)-1 and (Rp)-1 against a human adherent tumor cell line, Mahlavu (liver cancer), were also evaluated according to the following protocol:
Cryopreserved Mahlavu cells were thawed and cultured as a monolayer in the media M10 (Dulbecco's modified eagle's medium supplemented with 10% FCS and 100 units/mL penicillin and 100 μg/mL streptomycin) in a 75 cm^2 tissue culture flask. The flask was kept in a 5% CO2 humidified incubator at 37° C. Since the cells attached strongly to the bottom of culture flask, trypsin solution in PBS was used to detach the cells and then the Mahlavu cells were washed and counted as suspension cells.
10,000 cells were placed into each well of 6-well petri plates and incubated overnight to allow attachment to the plate. Triplicate samples of cells were allowed to react with the gold(I) complexes at three concentrations for four hours, followed by removal of the media. As before, a control with no drug treatment was included. The plates were then washed once with PBS(5 mL) and fresh media M10 (3 mL) was added. The plates were incubated at 37° C. in a CO2 incubator for 5 days. The Mahlavu cells In each well were trypsinized and counted as usual.
The IC50 values of (Sp)-I and (Rp)-I against this adherent tumor cell line were 6 and 8 μM, respectively. The IC50 values were determined as described above.

Molt-4 (T-cell leukemia) = test: human suspension tumor cell line assay, Molt-4; assay type: cell-based; settings: 2 h exposure, cells counted after 5 days; read-out: cytotoxicity IC50, Molt-4
Method: as §5, §6, §7, §8

advanced K36 lymphoma = advanced K36 lymphoma model, treatment from Day 7; assay type: in vivo, AKR mice; settings: for average ILS % (Increased Life Span): control average life span 21 days after tumour implantation; for anti-tumor activity against advanced K36 tumor model in words (FIG. 1): treatment from Day 7, i.p. twice a day; for MTTD in advanced K36 model: treatment from Day 7, up to 4 days
Method: On Day 0, AKR mice were injected with K36 lymphoma cells. On Day 7, mice were divided into control and treatment groups. Treatment groups were injected intraperitoneally with either cisplatin, (Sp)-1, or (Rp)-1. Control groups were […] treated with any of the above compounds. On each subsequent day, the 3 treatment groups were injected with the respective compounds twice a day. Tumor weights were estimated from two-dimensional measurements on each day.
The anti-tumor activities of (Sp)- and (Rp)-I were also assessed against advanced K36 lymphoma model. Also, the active positive control, cisplatin, was included in the evaluation.
The protocol design for this test was similar as described above except that drug administrations began on Day 7 (Day 0 is the date of implantation). At this stage, the tumor sizes on mice averaged around 9×8 mm and the estimated average tumor weight was about 300 mg. Due to the extremely fast growth of the K36 lymphoma (the double time is around 1 day), there was limited time (up to 4 days) to escalate the drug dosage to the most tolerated level, before the tumor became too big to give a positive response to any drug treatment.
The results are visualised in FIG. 1. […] They can markedly retard the tumor growth during the period of drug treatment and even after treatment. The average ILS % (Increased Life Span) of (Sp)-I and (Rp)-I was 48% and 31%, respectively (the average life span of the control group was 21 days after tumour implantation). Particularly, one mouse treated with (Sp)-I survived for 48 days after tumour implantation.

[2] = dose levels of 54 and 36 μmol/kg

| SMILES | T/C (tumor weight treated/control x 100) [1] [%] | IC50 (Daudi (B-cell lymphoma)) [nM] | IC50 (Raji (B-cell lymphoma)) [nM] | T/C (K36 lymphoma; dosage 24 μmol/kg) [%] | T/C (K36 lymphoma; dosage 36 μmol/kg) [%] | T/C (K36 lymphoma; dosage 54 μmol/kg) [%] | in vivo activity in words (K36 lymphoma; dosage level of 24 μmol/kg) | in vivo activity in words (K36 lymphoma; [2]) | IC50 (P3HR-1 (B-cell lymphoma)) [nM] | IC50 (Mahlavu (liver cancer)) [nM] | IC50 (Molt-4 (T-cell leukemia)) [nM] | average ILS % (Increased Life Span) (advanced K36 lymphoma) [%] | survival of one treated mouse after tumour implantation (advanced K36 lymphoma; one mouse) [days] | anti-tumor activity against advanced K36 tumor model in words (FIG. 1) (advanced K36 lymphoma) | MTTD in advanced K36 model (advanced K36 lymphoma) [µmol/kg] |
| --- | --- | --- | --- | --- | --- | --- | --- | --- | --- | --- | --- | --- | --- | --- | --- |
| [Au+].[Cl-].c1ccc(P(CCP(c2ccccc2)c2ccccc2)c2ccccc2)cc1.c1ccc(P(CCP(c2ccccc2)c2ccccc2)c2ccccc2)cc1 [[Au(dppe)2]Cl, reference compound] | 12 | – | – | – | – | – | – | – | – | – | – | – | – | – | – |
| CCOC(=O)C1C(P(c2ccccc2)c2ccccc2)C2C(C)=C(C)C1P2c1ccccc1.[Cl][Au].[Cl][Au] [(Sp)-I, μ-{(1α,4α,5α(R),6β(S),7S)-5-(diphenylphosphino)-2,3-dimethyl-6-(ethoxycarbonyl)-7-phenyl-7-phosphabicyclo[2.2.1]hept-2-ene-P5,P7}bis[chlorogold(I)]] | 5 | 800 | 500 | 33 | 12 | 5 | moderate activity | highly active | 500 | 6000 | 1000 | 48 | 48 | significant anti-tumor activities | 32 |
| CCOC(=O)C1C(P(c2ccccc2)c2ccccc2)C2C(C)=C(C)C1P2c1ccccc1.[Cl][Au].[Cl][Au] [(Rp)-I, μ-{(1α,4α,5α(S),6β(R),7R)-5-(diphenylphosphino)-2,3-dimethyl-6-(ethoxycarbonyl)-7-phenyl-7-phosphabicyclo[2.2.1]hept-2-ene-P5,P7}bis[chlorogold(I)]] | 6 | 500 | 300 | 38 | 14 | 6 | moderate activity | highly active | 200 | 8000 | 1000 | 31 | – | significant anti-tumor activities | 32 |
| N.N.[Cl][Pt][Cl] [Cisplatin, cis-diaminedichloroplatinum(II), reference compound] | 6 | – | – | – | – | – | – | – | – | – | – | – | – | did not inhibit the growth of the advanced K36 lymphoma at all | 28 |
